Assay results: patent US20160038474A1, “COMPOSITIONS AND METHODS FOR THE MODULATION OF HEMOGLOBIN (S)” (GLOBAL BLOOD THERAPEUTICS, INC., priority 2013, published 2016)
Read-outs that look alike come from different tables or passages of the source.

Assays:
HbS [1] = biological target: T1, HbS (Homo sapiens, UniProt P68871+P69905, E7V); assay: 96-well oxygen dissociation assay (ODA); assay type: biochemical; details: [Hb] 3 μM; [cmp] 1 μM
HbS [2] = biological target: T1, HbS; assay: 96-well oxygen dissociation assay (ODA); assay type: biochemical; details: for potency at increasing the oxygen affinity of HbS compared with 5-HMF: 96-well ODA; for Hb in ODA (Δoxy state): [Hb] 3 μM, [cmp] 3 μM
Description: Results: Table 4 below lists the change in oxygen affinity (Δoxy state). After two hours of passive deoxygenation, compound 12, at an equimolar concentration to Hb, increased the Hb oxygen affinity by 6-fold.

[3] = biological target: T2, whole blood from homozygous sickle cell patients, Hb(S) (Homo sapiens, UniProt P68871+P69905, E7V); assay: Reverse Hemox assay (oxygen equilibrium curves), whole blood; assay type: cell-based; details: for Whole Blood OEC (delta p50%): [Hb] 1 mM; for p50: whole blood from sickle cell disease patients, control blood p50 30 mm Hg; for Reverse Hemox delta p50% (class) / Reverse Hemox delta p50%: 1 mM compound, whole blood, hematocrit 20%; for Reverse Hemox delta p50%: 1 hour 37° C.
T2 construct: Oxygen Equilibrium Curves (OEC) of whole blood before and after treatment; from tissue; host or cells: whole blood (or washed red blood cells) of homozygous sickle cell patients
Method: (§1) Oxygen Equilibrium Curves (OEC) of whole blood before and after treatment with different concentrations of compounds 12, 22 and 23 were performed as follows using a HEMOX analyzer (TCS Scientific, New Hope, Pa.). Blood samples from homozygous sickle cell patients were obtained though the Hemoglobinopathy Center at Children's Hospital Oakland Research Institute (CHORI) with Institutional Review Board approval. The hematocrit was adjusted to 20% using autologous plasma and the blood samples were incubated for 1 hour at 37° C. in absence or presence of compounds. 100 μl of these samples were added to 5 mL of Hemox butter (30 mM TES, 130 mM NaCl, 5 mM KCl, pH=7.4) at 37° C. and then transferred to the Hemox sample chamber. The samples were saturated with oxygen by flushing with compressed air for 10 minutes. The samples were then flushed with pure nitrogen and the respective absorbances of oxy- and deoxy-Hb are recorded as a function of the solution pO2. The oxygen equilibrium data were then fitted to the Hill Model to obtain values for p50. The deoxygenation curves for both whole blood alone (control) and whole blood in the presence of the compound were collected with the TCS software.
Results: Table 3 below lists the delta p50% values where “+” indicates a delta p50% of between 0 and 29, “++” indicates a delta p50% of between 30 and 50, and “+++” indicates a delta p50% of 50 or greater.
(§2) Reverse hemox assay was performed essentially as described in Example 2, above, using either washed red blood cells or whole blood.

washed red blood cells = assay: Reverse Hemox assay (OEC), washed red blood cells; assay type: cell-based, human
Method: as §1, §2
Results: Table 4, below, indicates the percent change in p50 (delta p50%) for each compound tested. In the washed red blood cells (RBCs), 5-HMF, compound 5, and compound 12 (1 mM compound) gave p50 of 20, 9 and 7 mm Hg, respectively, compared to the control red blood cells (delta p50=30 mm Hg). To determine the effects of plasma proteins on compound activity. OECs were measured in whole blood from sickle cell disease patients. 5-HMF, compound 5, compound 9, and compound 12 gave p50 of 27, 18, 11 and 6 mm Hg, respectively, compared to the control blood p50 of 30 mm Hg.

[4] = tested on: sickle cell disease patient whole blood (ssRBCs); assay: Viscosity assay, hypoxic sickle cell blood; assay type: cell-based, human; details: [Hb] 1.5 mM, two hours of hypoxia
Method: Sickle cell disease patients develop anemia as a means for the circulatory system to compensate for increase in blood viscosity caused by the non-deformable sickle cell red blood cells (ssRBCs). The effects of 5-HMF, compound 5, compound 9, or compound 12 were tested on sickle cell disease patient blood rheology to determine if these compounds decrease the viscosity of ssRBCs that have undergone hypoxia. Using blood from patients with sickle cell disease, whole blood (30% hematocrit, ˜1.5 mM Hb) was incubated with 5-HMF, compound 5, compound 9, or compound 12 during exposure to two hours of hypoxia (2.4% 02). A cone-plate viscometer was used to measure the viscosity at shear rates ranging from 60 s^−1 to 415 s^−1.

purified HbS = biological target: T3, purified HbS (Homo sapiens, UniProt P68871+P69905, E7V); assay: HbS polymerization assay; assay type: biochemical; details: 75 μM compound; 50 μM HbS
T3 construct: HbS is purified by the CRO VIRUSYS, from blood obtained from homozygous sickle cell patients; tissue VIRUSYS (CRO that did the purification); host or cells: blood of homozygous sickle cell patients
Method: Polymerization assays are carried out in vitro using purified HbS exchanged into 1.8 M potassium phosphate buffer at pH 7.4. Using a slightly modified protocol (Antonini and Brunori, 1971). HbS is purified by the CRO VIRUSYS, from blood obtained from homozygous sickle cell patients through the Hemoglobinopathy Center at Children's Hospital Oakland Research Institute (CHORI) with Institutional Review Board approval. Compounds are prepared in 100% DMSO and a desired amount is added to 50 μM of purified HbS at a final DMSO concentration of 0.3%. Final potassium phosphate concentration is adjusted to 1.8 M using a combination of 2.5 M potassium phosphate stock solution and water at pH 7.4. The reaction mixture is incubated for an hour at 37° C. and then transferred into a 24-well plate for deoxygenation in a glove box containing 99.5% nitrogen and 0.5% oxygen. The 24-well plate is not covered and incubated at 4° C. on a plate cooler inside the glove box for one and a half hours. Fifty μl of the reaction mixture is transferred into a 96-well plate and the absorbance at 700 nm is measured every minute for one hour at 37° C. in a plate reader located inside the glove box. A plot of the absorbance against time is fitted using a Boltzman sigmoidal fit and the delay time (from zero to time at half Vmax) is measured. To compare and rank compounds, delay times are expressed as percent delay (% DT), which is defined as the difference in delay times for HbS/compound and HbS alone multiplied by 100 and divided by the delay time for HbS alone.
The ability of 5-HMF and compound 12 to delay HbS polymerization was evaluated as described in Example 2, above. Purified HbS (50 μM) was pre-incubated with 25 μM, 50 μM, or 100 μM of 5-HMF or compound 12, then passively de-oxygenated at 4° C. in 1.8 M potassium phosphate. Polymerization was induced via temperature jump from 4° C. to 37° C. Polymerization was quantified based on turbidity of the HbS solution under continued hypoxia.

[5] = Rat pharmacokinetics and blood/plasma partitioning (Example 1); assay type: in vivo, Rats (Sprague-Dawley); details: for level of compound in blood versus plasma, overall exposure / relative proportion in blood (as compared to plasma) at peak concentration (Cmax): dosed orally; for Vd / bioavailability / clearance / blood plasma ratio: male, Sprague-Dawley; for Vd / bioavailability: in vivo; for Vd / clearance: oral 10 mg/kg or intravenous 1 mg/kg; for Vd: read-out: Vss; for bioavailability: oral 10 mg/kg, intravenous 1 mg/kg; for clearance: plasma; for blood plasma ratio: whole blood and plasma, oral, 10 mg/kg
Method: This experiment was established and used in order to assess the pharmacokinetic (PK) properties of the compounds.
Sample collection and data analysis: Rats (Sprague-Dawley, male, 8-12[…] weeks old) were dosed with one of three compounds corresponding to compound 12, compound 22 or compound 23. The rats received oral (10 mg/kg) or intravenous (1 mg/kg) doses of the compound. Rats were fasted overnight before the experiments and provided with food after the 2 hour sampling time point.
Blood samples were collected at different time points. Blood was anti-coagulated by 3.2% TSC (trisodium citrate) and a portion was separated into plasma fraction by centrifugation and removal of blood cells. Plasma and lysed blood samples were anal) zed for drug concentration using LC-MS/MS. PK parameters were calculated by non compartmental analysis of the concentration-time profiles using WinNonLin software (Pharsight, Mountain View, Calif.). Apparent elimination half-life (t1/2) values were calculated as ln(2)/k. Area under the concentration-time curve (AUC) values were estimated using the linear trapezoidal method. AUClast values were calculated from the dosing time to the last measurable concentration. AUCinf values were calculated as the sum of the corresponding AUClast and the ratio of the last detectable concentration divided by k. Plasma clearance (Cl) is calculated from Dose/AUCinf. Volume of distribution at steady state (Vss) is calculated from Mean Residence Timeinf×Clss. Maximum concentration (Cmax) and time to Cmax (Tmax) was recorded as observed. The blood/plasma partitioning ratio was calculated at each experimental time point.

HbS/A = biological target: T4, HbS/A (Homo sapiens, UniProt P68871+P69905, E7V); assay: R/T assay (relaxed-to-tense transition); assay type: biochemical; details: HbS/A 3 μM
T4 construct: A mixture of HbS/A was purified from blood obtained from homozygous sickle cell patients; from tissue; host or cells: blood of homozygous sickle cell patients
Method: This ability can be expressed as a “delta R” value (i.e., the change in the time-period of the R state after hemoglobin is treated with a compound, as compared to the period without treatment with the compound). Delta R is the % R to remaining after the compounds treatment compared with no treatment (e.g., if R % without treatment is 8% while with treatment with a target compound is 48% R at 30 μM, then % R is 40% for that compound.
A mixture of HbS/A was purified from blood obtained from homozygous sickle cell patients though the Hemoglobinopathy Center at Children's Hospital Oakland Research Institute (CHORI) with Institutional Review Board approval. HbS/A (at a final concentration of 3 μM) was incubated for 1 hr at 37° C. in presence or absence of compounds in […] potassium phosphate buffer, pH=7.4 and 30 μM 2,3 diphosphoglycerate (DPG) in 96 well plates in a final volume of 160 μl. Compounds were added at different concentrations (3 μM to 100 μM final concentrations). Plates were covered with a Mylar film. After incubation was completed the Mylar cover was removed and the plates were placed in a Spectrostar Nano plate reader previously heated at 37° C. Five minutes later, N2 (flow rate=20 L/min) was flowed through the spectrophotometer. Spectroscopic measurements (300 nm to 700 nm) were taken every 5 min for 2 hours. Data analysis was performed by using linear regression from the data retrieved for all wavelengths.

[6] = read-out: Blood/plasma (Ratio of exposure AUCINF)
[7] = read-out: Blood/plasma (Ratio of peak concentration)

Hb in ODA (Δoxy state) (HbS [1])	Hb in ODA (Δoxy state) (HbS [2])	Whole Blood OEC (delta p50%) ([3]; [cmp] 1 mM)	Whole Blood OEC (delta p50%) ([3]; [cmp] 3 mM)	p50 [3]	Reverse Hemox delta p50% (class) [3]	Reverse Hemox delta p50% [3]	Polymerization % DT (class) (purified HbS)	Polymerization % DT (percent delay) (purified HbS)	level of compound in blood versus plasma, overall exposure [5]	relative proportion in blood (as compared to plasma) at peak concentration (Cmax) [5]	Vd [5]	bioavailability [5]	clearance [5]	blood plasma ratio [5, 6]	blood plasma ratio [5, 7]	R-T delta R (HbS/A; 9 μM compound)	R-T delta R (class) (HbS/A; 9 μM compound)	Structure (SMILES)	potency at increasing the oxygen affinity of HbS compared with 5-HMF (HbS [2])	Viscosity (ΔcP) ([4]; [cmp] 8 mM)	also measured
6	23	63%	>80%	11 mm Hg	–	–	–	–	–	–	–	–	–	–	–	–	–	COc1cc(C=O)c(OCc2cccnc2-c2ccnn2C(C)C)cn1 [Compound 9, 2-methoxy-5-[[2-(2-propan-2-ylpyrazol-3-yl)pyridin-3-yl]methoxy]pyridine-4-carbaldehyde]	more potent at increasing the oxygen affinity of HbS than 5-hydroxy furfural	>2.4 cP	Washed RBC OEC (delta p50%) (washed red blood cells; [Hb] 1 mM, [cmp] 1 mM): 69%; Viscosity (ΔcP) ([4]; [cmp] 1.6 mM): 2.3 cP
2	10	49%	71%	18 mm Hg	–	–	–	–	–	–	–	–	–	–	–	–	–	COc1cc(C=O)c(OCc2cccnc2-c2[nH]ncc2C)cn1 [Compound 5, 2-methoxy-5-[[2-(4-methyl-1H-pyrazol-5-yl)pyridin-3-yl]methoxy]pyridine-4-carbaldehyde]	more potent at increasing the oxygen affinity of HbS than 5-hydroxy furfural	>2.4 cP	p50 (washed red blood cells; washed RBCs, 1 mM compound, control 30 mm Hg): 9 mm Hg
–	–	–	–	–	+++ (a delta p50% of 50 or greater)	68.69%	†† (activity >80% but ≦120%)	90.22%	5 fold	5 fold	3.1 L/kg	6.6%	0.54 L/h/kg	33	5	31.02	++ (a delta R of between 30 and 50)	COc1cc(C=O)c(OCc2cccnc2-c2ccnn2CC(F)F)cn1 [Compound 22, 5-[[2-[2-(2,2-difluoroethyl)pyrazol-3-yl]pyridin-3-yl]methoxy]-2-methoxypyridine-4-carbaldehyde]	–	–	R-T delta R (HbS/A; 10 μM compound): 36.25; R-T delta R (class) (HbS/A; 10 μM compound): ++ (a delta R of between 30 and 50)
–	–	–	–	–	+++ (a delta p50% of 50 or greater)	72.45%	†† (activity >80% but ≦120%)	98.19%	1 fold	3 fold	3.15 L/kg	1.8%	0.822 L/h/kg	4	1	37.15	++ (a delta R of between 30 and 50)	COc1cc(C=O)c(OCc2cccnc2-c2ccccc2C)cn1 [Compound 23, 2-methoxy-5-[[2-(2-methylphenyl)pyridin-3-yl]methoxy] pyridine-4-carbaldehyde]	–	–	R-T delta R (HbS/A; 10 μM compound): 51.55; R-T delta R (class) (HbS/A; 10 μM compound): +++ (a delta R of 50 or greater)
